Entries after “also recorded” stand apart in the source; their conditions may differ. Read-outs that look alike come from different tables or passages of the source. Where a SMILES comes first, the peptide text is derived from it.
Assays:
ExoU [1] = target: T1, ExoU (Pseudomonas aeruginosa, UniProt O34208); assay: ExoU in vitro phospholipase assay (real-time, dose-response); format: biochemical; details: for Inhibition of ExoU phospholipase activity (in words): real-time phospholipase assay, Fig 2A, 2B, 2E
[2] = tested on: HCE-T cells infected with exoU⁺ clinical P. aeruginosa keratitis isolates; assay: CellDiscoverer 7 high-content screen, exoU+ isolates; format: cell-based, human; details: 4.5 h post-infection; Bis 10 µM, Zp 2.5 µM, Pol 1 µM; DMSO ~43%
P. aeruginosa PA103 [3] = tested on: P. aeruginosa PA103; parameters: species or system porcine; details: 48 hours
human PLA2G7 = target: T2, human PLA2G7 (Homo sapiens, UniProt Q13093); assay: Human phospholipase assay, 2-thio-PAF substrate; format: biochemical; details: 10 µM, S4 Fig
T2 construct: 6xHis (N); made in house; host or cells: E. coli C43(DE3)
T2 sequence (Q13093 22-441): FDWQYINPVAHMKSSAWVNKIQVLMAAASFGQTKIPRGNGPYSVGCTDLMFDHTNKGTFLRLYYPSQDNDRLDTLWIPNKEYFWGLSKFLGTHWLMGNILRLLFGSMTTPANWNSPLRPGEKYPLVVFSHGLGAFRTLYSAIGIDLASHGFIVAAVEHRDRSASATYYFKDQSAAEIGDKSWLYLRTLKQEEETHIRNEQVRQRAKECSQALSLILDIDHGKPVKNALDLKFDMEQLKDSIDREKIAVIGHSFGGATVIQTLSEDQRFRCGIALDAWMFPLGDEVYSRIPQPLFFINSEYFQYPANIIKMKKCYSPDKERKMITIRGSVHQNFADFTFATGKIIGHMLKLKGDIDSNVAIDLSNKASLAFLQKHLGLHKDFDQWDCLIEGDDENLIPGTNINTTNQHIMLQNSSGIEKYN

EGFP-tagged ExoU (S142A) = assay: EGFP-ExoU (S142A) abundance and lysosome colocalisation in transfected HEK293T cells
[4] = tested on: T3SS gene expression in P. aeruginosa PA103 and PAO1; assay: Quantitative RT-PCR of T3SS gene expression; format: cell-based, Pseudomonas aeruginosa; details: Bis 10 µM, Zp 2.5 µM, Pol 1 µM in LB
PLA2G4C = target: T3, PLA2G4C (Homo sapiens, UniProt Q9UP65); assay: Human phospholipase assay, thio-BGPC substrate; format: biochemical; details: 10 µM, S4 Fig
T3 construct: 6xHis (N); made in house; host or cells: E. coli C43(DE3)
T3 sequence (Q9UP65 1-541): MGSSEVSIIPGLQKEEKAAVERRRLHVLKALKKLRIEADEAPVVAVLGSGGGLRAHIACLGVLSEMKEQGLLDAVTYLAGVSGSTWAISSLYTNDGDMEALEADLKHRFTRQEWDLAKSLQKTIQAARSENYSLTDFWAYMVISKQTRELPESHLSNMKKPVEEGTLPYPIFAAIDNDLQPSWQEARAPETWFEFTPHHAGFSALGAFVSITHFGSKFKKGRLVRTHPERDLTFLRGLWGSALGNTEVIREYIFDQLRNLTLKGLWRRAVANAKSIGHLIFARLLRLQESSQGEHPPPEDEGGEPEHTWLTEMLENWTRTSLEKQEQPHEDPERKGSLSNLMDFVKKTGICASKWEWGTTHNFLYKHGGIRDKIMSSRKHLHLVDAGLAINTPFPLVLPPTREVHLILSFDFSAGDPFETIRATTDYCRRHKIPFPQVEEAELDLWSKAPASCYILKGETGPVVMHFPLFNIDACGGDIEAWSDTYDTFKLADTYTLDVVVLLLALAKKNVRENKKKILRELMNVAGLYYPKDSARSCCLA
Description: Recombinant human PLA2G7 and PLA2G4C activities were measured in 96well, -well, UVtransparent microplates (Corning) in a final volume of 50 µL per well. Reactions were carried out in 20 mM […] TrisHCl-HCl (pH 8.2), 100 mM NaCl, and 0.01% Tween 20, with a 1% (v/v) final DMSO concentration. For PLA2G7, substrate cleavage was monitored using 0.6 mM 2-thio-PAF (Cambridge Bioscience Ltd), and for PLA2G4C, 0.6 mM arachidonoyl thio-bis-glycerophosphocholine (thioBGC-BGC; Cambridge Bioscience Ltd) was employed. In both assays, 1 mM DTNB (5,5′-dithiobis-(2nitrobenzoic acid), -nitrobenzoic acid), SigmaAldrich-Aldrich) served as the chromogenic reporter. Enzyme (500 nM final) was preequilibrated with buffer at 25 °C for 5 min before initiating-equilibrated with buffer at 25 °C for 5 min before initiating the reaction by substrate addition. Absorbance at 414 nm was recorded every minute for 1 h on a Hidex plate reader.
(B) ExoU activity was assessed using arachidonoyl thio-phosphatidylcholine (thio-PC) in the presence of 10 µM of the indicated compound. […] (TIF)

ExoU [5] = target: T1, ExoU; assay: nanoDSF thermal stability of ExoU; format: binding; details: 10 µM compound; for ΔTm at 10 µM: read-out: Decrease of ExoU Tm
Description: Thermal stability of recombinant His₆-ExoU was assessed using a Prometheus NT.48 instrument (NanoTemper Technologies, Cambridge, UK) without extrinsic dyes, as these were not compatible with the use of PIP2. ExoU was diluted to 5 µM in 20 mM TrisHCl-HCl (pH 8.2), 100 mM NaCl, and 10% (v/v) glycerol. To evaluate ligand effects, four samples were prepared: ExoU alone, ExoU with 5 µM PIP2, ExoU with 10 µM inhibitor, and ExoU with both 5 µM PIP2 and 10 µM indicated inhibitor, each maintaining 1% (v/v) DMSO. Ten microliters of each mixture were loaded into highsensitivity-sensitivity nanoDSF glass capillaries and subjected to a thermal ramp from 25 °C to 95 °C at 1 °C/min. Intrinsic tryptophan fluorescence emission at 330 nm and 350 nm was recorded continuously, and the ratio F₃₅₀/F₃₃₀ was plotted against temperature. Melting temperatures (Tₘ) were determined from the inflection point of the first derivative of the fluorescence ratio using the manufacturer’s analysis software. All conditions were measured in triplicate. Changes in melting temperature (Δ Tₘ) compared to DMSO, or DMSO PIP2 controls were plotted using GraphPad.
Supplementary file ppat.1014474.s008.tif: S7 Fig Nano differential scanning fluorimetry (nanoDSF) analysis of ExoU thermal stability in the presence of compounds. Raw melt curves of recombinant ExoU are shown in the absence (left) and presence (right) of PIP2 (5 µM) from three independent (A-C) experiments. Compounds were tested at 10 µM. Intrinsic tryptophan fluorescence emission was continuously monitored at 330 nm and 350 nm as the temperature increased, and the fluorescence ratio (F₃₅₀/F₃₃₀) was plotted against temperature. Melting temperatures (Tₘ) were calculated from the average inflection point of the first derivative of the fluorescence ratio using the manufacturer’s analysis software. (TIF)

ExoU [6] = target: T1, ExoU; assay: BS3 cross-linking and SDS-PAGE of ExoU oligomerisation; details: 10 µM inhibitor
Description: Four reaction mixtures (50 µL each) were prepared at room temperature: ExoU alone; ExoU with 5 µM PIP2; ExoU with 10 µM inhibitor; and ExoU with both 5 µM PIP2 and 10 µM inhibitor for 30 minutes at 25 °C. […] Reactions were quenched by addition of Tris HCl pH 7.4 to 50 mM and a further 15 min incubation at room temperature. […] Membranes were blocked in TBST containing 5% (w/v) non-fat milk for 1 h, then incubated overnight at 4 °C with mouse anti-His monoclonal antibody (Bio Rad; 1:2,000). After washing in TBST, membranes were incubated with HRP-conjugated goat anti-mouse IgG for 1 h at room temperature. Signal was detected by chemiluminescence with X ray film exposure, and band patterns were analysed to determine the distribution of monomeric and oligomeric ExoU species under each condition.

P. aeruginosa PA103 [7] = format: in vivo, Galleria mellonella
[8] = tested on: primary human corneal epithelial cells
in vitro = details: human, primary human corneal (limbal) epithelial cells
P. aeruginosa PA103 [9] = details: read-out: IC50 of bacterial growth
[10] = tested on: PA103-infected HCE-T cells; assay: LDH release assay in PA103-infected scratched HCE-T cells; format: cell-based, human; details: 2.5 µM compound, PA103 MOI 10, 4 hours, S6 Fig
Description: Percentage lysis was normalized to the maximal LDH release from the kit positive control (CyQUANT; Thermo Fisher). (TIF)

[11] = Fig 1B dose-response, PIP2 and ubiquitin present, read-out: IC50 for ExoU inhibition in vitro
[12] = Fig 2C dose-response phospholipase assays, read-out: IC50 of bismuth-based ExoU inhibitors and subcitrate alone
[13] = Fig 3C, three-parameter fit, read-out: IC50 for ExoU inhibition, individual inhibitors or equimolar combinations

Molecule: CC[C@H](C)CCCCC(=O)O [(S)-6-methyloctanoic acid]
- Inhibition of ExoU phospholipase activity (in words) (ExoU [1]): failed to inhibit ExoU

Molecule: O=C([O-])CC(O)(CC(=O)[O-])C(=O)[O-].O=C([O-])CC(O)(CC(=O)[O-])C(=O)[O-].[Bi+3].[K+].[K+].[K+] [Bis, bismuth subcitrate]
- Mean live-cell area relative to non-infected controls [2]: 55.8%
- Histology (H&E) of infected corneas (P. aeruginosa PA103 [3]): partial epithelial preservation and less stromal damage
- Corneal opacity (P. aeruginosa PA103 [3]; Bis 5 µM, Zp 2.5 µM, Pol 1 µM topical): performing slightly better than Zp
- Inhibition of PLA2G7 enzymatic activity (human PLA2G7): neither Bis, Pol, nor Zp inhibited enzymatic activity
- Level of EGFP-tagged ExoU (S142A) by Western blot (EGFP-tagged ExoU (S142A); 5 µM, 16 h): substantially reduced
- EGFP-ExoU (S142A) fluorescence and localisation (confocal) (EGFP-tagged ExoU (S142A); 16 h): marked reduction; also recorded: redistributed into punctate structures that co-localised with RFP-LAMP1
- Pearson's correlation coefficient r, ExoU-lysosome (RFP-LAMP1) colocalisation (EGFP-tagged ExoU (S142A); 16 h compound treatment, DMSO r = 0.05): 0.49
- Expression of exsA, pcrV, exoU in PA103, or exsA, pcrV, exoS in PAO1 [4]: no significant changes
- Inhibition of PLA2G4C (PLA2G4C): no inhibition
- Decrease of ExoU Tm (ExoU [5]; absence of PIP2): no measurable effect
- Decrease of ExoU Tm (ExoU [5]; with 5 µM PIP2): ~ 2 °C
- Migration of BS3 cross-linked ExoU on SDS-PAGE (ExoU [6]; with PIP2): single discrete high‐molecular‐weight band
- Migration of BS3 cross-linked ExoU on SDS-PAGE (ExoU [6]; without PIP2): did not alter this profile
- Clinical score: mean±SD (health score 0-9) (P. aeruginosa PA103 [7]; PA103 1 × 10⁵ CFU, Bis 0.1 mg/g, Zp 0.01 mg/g, Pol 0.004 mg/g, 40 h): 4.17 ± 3.89
- Median survival (P. aeruginosa PA103 [7]; PA103-infected larvae, PA103 alone 16): 16 h
- Delay of disease progression (P. aeruginosa PA103 [7]; in a subset of larvae): approximately 8 h
- IC50 (ExoU [1]; [11]): 12.8 ± 1 µM
- IC50 (ExoU [1]; [12]): 9.9 µM
- IC50 (ExoU [1]; [13]): 13.3 ± 2.9 µM

Molecule: [Cl][Bi]([Cl])[Cl] [Bismuth chloride, bismuth chloride]
- IC50 (ExoU [1]; [12]): 9.2 µM

Molecule: CC[C@H](C)CCCCC(=O)N[C@@H](CCN)C(=O)N[C@H](C(=O)N[C@@H](CCN)C(=O)N[C@H]1CCNC(=O)[C@H]([C@@H](C)O)NC(=O)[C@H](CCN)NC(=O)[C@H](CCN)NC(=O)[C@H](CC(C)C)NC(=O)[C@@H](Cc2ccccc2)NC(=O)[C@H](CCN)NC1=O)[C@@H](C)O [Pol, polymyxin B] (HELM PEPTIDE1{[CC[C@H](C)CCCCC(=O)[*:2]].[Dab].T.[Dab].[Dab].[Dab].[dF].L.[Dab].[Dab].T}$PEPTIDE1,PEPTIDE1,5:R3-11:R2$$$V2.0)
- LD50 (LDH release) [8]: 42.5 ± 10.6 µM
- CC50 at 48 h (in vitro): 43 µM
- IC50 (P. aeruginosa PA103 [9]; in DMEM/F-12 supplemented with 10% (v/v) FBS): 2.1 µM
- IC50 (P. aeruginosa PA103 [9]; in LB): 0.75 µM
- ΔTm at 10 µM (ExoU [5]; absence of PIP2): -3.8 °C
- ΔTm at 10 µM (ExoU [5]; with 5 µM PIP2): -6.2 °C
- IC50 (ExoU [1]; [11]): 13.1 ± 1.7 µM
- IC50 (ExoU [1]; [13]): 11.6 ± 0.9 µM
- IC50 (ExoU [1]; IC50 for ExoU inhibition, polymyxin B and poltide analogues, Fig 2E): 13 µM

Molecule: [H]/N=C(\N/C(=N/[H])NCCCCCCNC(=N)NC(=N)Nc1ccc(Cl)cc1)Nc1ccc(Cl)cc1 [chlorhexidine]
- IC50 (ExoU [1]; [11]): 18.5 ± 3.3 µM

Molecule: On1ccccc1=S.On1ccccc1=S.[Cu] [copper pyrithione]
- Inhibition of ExoU phospholipase activity (in words) (ExoU [1]): Neither copper pyrithione, nor pyrithione inhibited ExoU

Molecule: CC(=O)Oc1ccc(C(=C2CCCCC2)c2ccc(OC(C)=O)cc2)cc1 [cyclofenil]
- IC50 (ExoU [1]; [11]): 20.2 ± 2.8 µM

Molecule: CCN(CC)CCN(Cc1ccc(-c2ccc(C(F)(F)F)cc2)cc1)C(=O)Cn1c(SCc2ccc(F)cc2)nc(=O)c2c1CCC2 [darapladib]
- ExoU activity with arachidonoyl thio-PC substrate (ExoU [1]; 10 µM compound, S4 Fig): did not inhibit ExoU activity

Molecule: COc1cc2c(cc1OC)[C@@H](Cc1cc(OC)c(OC)c(OC)c1)[N+](C)(CCCOC(=O)CC/C=C/CCC(=O)OCCC[N+]1(C)CCc3cc(OC)c(OC)cc3[C@H]1Cc1cc(OC)c(OC)c(OC)c1)CC2 (stereo partly shown) [mivacurium chloride]
- IC50 (ExoU [1]; [11]): 6 ± 1.8 µM

Molecule: [O-][n+]1ccccc1S [pyrithione]
- Inhibition of ExoU phospholipase activity (in words) (ExoU [1]): Neither copper pyrithione, nor pyrithione inhibited ExoU

Molecule: O=S(=O)([O-])[O-].[Zn+2] [zinc sulphate]
- Mean lysis (LDH release) [10]: 89%
- Inhibition of ExoU phospholipase activity (in words) (ExoU [1]): inhibited ExoU phospholipase activity

Molecule: lauric acid–Asp–Thr–Dab [Poltide 2]
- IC50 for ExoU inhibition, polymyxin B and poltide analogues (ExoU [1]; Fig 2E): no effect on ExoU activity

Molecule: subcitrate
- IC50 of bismuth-based ExoU inhibitors and subcitrate alone (ExoU [1]; Fig 2C dose-response phospholipase assays): No inhibition
